Test results as given in US20180327723A1, “Production of Glycosylated Nootkatol in Recombinant Hosts” (Evolva SA, priority 2015, published 2018).

Experiments:
[1] = test system: wild-type MATa strain ATCC 28383; assay: Growth-inhibitory effect on yeast, cell viability by plating (CFU); assay type: cell-based, S. cerevisiae; details: 5 h of exposure, plated on YPD
Experimental: A 20 mL seed culture of wild-type MATa strain ATCC 28383 was grown in SD-THUL medium (0.67 Bacto yeast nitrogen base without amino acids, 2% glucose, 0.14% yeast synthetic drop-out medium without uracil, tryptophan, histidine and leucine). The culture was grown for 24 h, and 2.5 mL of the culture was used to inoculate 7 equal batches of 50 mL fermentation medium (2% (NH4)2SO4, 2% KH2PO4, 0.1% NaCl, 0.6% MgSO4.7H2O, 0.4% yeast extract, 1 mL mineral solution [FeSO4.7H2O 0.028%, ZnSO4.7H2O 0.029%, CuSO4.5H2O 0.008%, Na2MoO4.2H2O 0.024%, CoCl2.6H2O 0.024%, MnSO4.H2O 0.017%, HCl 1 mL], 0.5 mL 50% glucose, 1.5 mL vitamin solution [biotin 0.001%, Ca-pantothenate 0.012%, inositol 0.06%, pyridoxine-HCl 0.012%, thiamine-HCl 0.012%], and 0.5 mL 10% CaCl2) in 250 mL baffled Ehrlenmeyer flasks.
In 6 flasks, nootkatol or glycosylated nootkatol (nootkatol+1 glucose) were added in final concentrations of 0.06, 0.125, and 0.5 g/L. The 7th flask was used as a control and was not treated with nootkatol or glycosylated nootkatol. The cultures were grown at 28° C. and 170 rpm, and the cell viability was measured after 5 h of exposure by plating 100 μL of 1/1000 dilution of cell culture on yeast extract peptone dextrose (YPD) plates.

[2] = In vitro de-glycosylation of nootkatol-glucoside by glycosidase enzymes, LC-MS; assay type: biochemical; details: water control, Delft fermentation medium, 2 hours
Experimental: Identical samples of 990 μl of Delft fermentation medium further comprising 0.1 mg nootkatol-glucoside (Nootkatol-Glc) were each treated with 10 μl of 12 exemplary glycosidase enzymes (listed in Table 3 below) (thus, 1% v/v) for 2 hours. After 2 hours, samples of the reaction mixture were taken, and the de-glycosylation reaction was terminated by addition of an equal volume of ethanol followed by freezing.
The resulting digested samples were analyzed by LC-MS on a BEH C18-column (100 mm×2.1 mm, 5 μm). Mobile phase A was 0.1% formic acid in water, and mobile phase B was 0.1% formic acid in acetonitrile. B concentration gradient was 0-1 min, 1%; 1-5 min, 100%; 5-7 min, 100%; 7-7.1 min, 1%; 7.1-9 min, 1%. The injection volume was 5 μL. Mass spectrometry analysis was carried out on an SQD1 detector (3.4 KV capillary, 37 V cone, 3 V extractor, 0.1 V RF lens) at a source temperature of 150° C. and desolvation temperature of 250° C., with full scan ESI+/−(100-900 amu scan range) and selective ion recording.

yeast = details: Gavira et al., 2013, Metab Eng. 18:25-35; cited from earlier work
[3] = In vitro glycosylation of nootkatol by purified UGTs with UDP-glucose, LC-MS; assay type: biochemical; details: 5 mM nootkatol, 15 mM UDP-glucose, 5 μL purified enzyme, overnight at 30° C.
Description: UGT85A1 (SEQ ID NO:9, SEQ ID NO:10), UGT76E1 (SEQ ID NO:11, SEQ ID NO:12), UGT73E1 (SEQ ID NO:13, SEQ ID NO:14), UGT73C3 (SEQ ID NO:15, SEQ ID NO:16), and UGT76E12 (SEQ ID NO:17, SEQ ID NO:18) were each cloned into a T7 promoter-based vector comprising a sequence coding for an N-terminal 6×His-tag. The vector backbone was linearized with restriction endonucleases, the UGT genes were amplified by PCR, and the constructs were verified by DNA sequencing.
Competent E. coli expression cells were transformed individually with a UGT-comprising plasmid. A colony from each transformation was inoculated individually in 6 mL NZCYM broth comprising an antibiotic. The pre-culture was incubated overnight at 37° C. and 220 rpm and used to inoculate 100 mL NZYCM broth with an antibiotic at an initial OD600 of 0.2. After growth at 37° C. until an OD600 of 0.6-0.8, the cells were induced for protein expression using 0.2 mM IPTG, followed by incubation at 20° C. and 120 rpm for 18-20 h.
Cells were harvested by centrifugation at approximately 4° C. and approximately 4000 g for 20 min and resuspended in 3 mL 10 mM Tris-HCl, pH 8.0 plus protease inhibitor. After cell disruption, 6 mL 1×HIS binding buffer (20 mM Tris-HCl, pH 7.5, 500 mM NaCl, and 10 mM imidazole) were added to the suspension. Cell crude extracts were centrifuged at 4° C. and approximately 4000 g for 30 min. The supernatant was collected, and 300 μL of nickel beads were added; the mixture was incubated with gentle mixing at 4° C. for 2 h. The mixture was centrifuged at 4° C. and approximately 1000 g for 3 min, the supernatant was removed, and the beads were resuspended with 3 mL 1×HIS binding buffer. This step was performed twice. The beads were then resuspended and mixed gently in 500 μL 1×HIS Binding Buffer. The mixture was then transferred into a cold Eppendorf tube, centrifuged at 4° C. and approximately 1000 g, and the supernatant was removed. The beads were resuspended in 400 μL elution buffer (20 mM Tris-HCl, pH 7.5, 500 mM NaCl, 250 mM imidazole), mixed gently, centrifuged at 4° C. and approximately 1000 g for 3 min, and the supernatant was collected. This step was performed three times to collect three elution fractions. Glycerol was added in a 1:1 ratio to each elution tube and protein solutions were stored at −80° C. The fractions were analyzed by SDS-PAGE and Western Blot. The fraction comprising the UGT with the highest purity was used for the subsequent in vitro assay.
UGT85A1 (SEQ ID NO:9, SEQ ID NO:10), UGT76E1 (SEQ ID NO:11, SEQ ID NO:12), UGT73E1 (SEQ ID NO:13, SEQ ID NO:14), UGT73C3 (SEQ ID NO:15, SEQ ID NO:16), and UGT76E12 (SEQ ID NO:17, SEQ ID NO:18) were employed for in vitro glycosylation of nootkatol in the presence of the sugar donor, UDP-glucose. The reaction was carried out in a final volume of 50 μL buffer (100 mM Tris, pH 8.0, 5 mM MgCl2, 1 mM KCl), 5 mM nootkatol in DMSO, 15 mM UDP-glucose, and 5 μL purified enzyme solution. The reaction was incubated overnight at 30° C. The sample was analyzed by LC-MS on a BEH C18-column (100 mm×2.1 mm, 5 μm). Mobile phase A was 0.1% formic acid in water; mobile phase B was 0.1% formic acid in acetonitrile. B concentration gradient was 0-1 min, 1%; 1-5 min, 100%; 5-7 min, 100%; 7-7.1 min, 1%; 7.1-9 min, 1%. The injection volume was 5 μL. […]

In the case of `C=C(C)C1CCC2=CC(OC3OC(CO)C(O)C(O)C3O)CC(C)C2(C)C1` (stereo not drawn) [glycosylated nootkatol], the “toxicity (cell viability)” value ([1]; 0.5 g/L) is reported as “no toxicity was observed” and the spontaneous de-glycosylation [2] is reported as “weak spontaneous de-glycosylation”.

For `C=C(C)C1CCC2=CC(O)CC(C)C2(C)C1` (stereo not drawn) [nootkatol, 2,3,4,4a,5,6,7,8-octahydro-6-isopropenyl-4,4a-dimethyl-2-naphtalenol], the “cellular toxicity in yeast” value (yeast) is given as “cellular toxicity” and the cell death ([1]; 0.125 g/L) is given as ~99%.

In the case of `C=C(C)[C@@H]1CCC2=CC(=O)C[C@@H](C)[C@]2(C)C1` [nootkatone, 4,4a,5,6,7,8-hexahydro-6-isopropenyl-4,4a-dimethyl-2(3H)-napthalenone], the “cellular toxicity in yeast” value (yeast) is listed as “cellular toxicity”.

B1: UGT85A1: UDP-glycosyltransferase, Arabidopsis thaliana, SEQ ID NO: 9, SEQ ID NO: 10 (protein, listed as Arabidopsis thaliana)
chain: MGSQIIHNSQKPHVVCVPYPAQGHINPMMRVAKLLHARGFYVTFVNTVYNHNRFLRSRGSNALDGLPSFRFESIADGLPETDMDATQDITALCESTMKNCLAPFRELLQRINAGDNVPPVSCIVSDGCMSFTLDVAEELGVPEVLFWTTSGCAFLAYLHFYLFIEKGLCPLKDESYLTKEYLEDTVIDFIPTMKNVKLKDIPSFIRTTNPDDVMISFALRETERAKRASAIILNTFDDLEHDVVHAMQSILPPVYSVGPLHLLANREIEEGSEIGMMSSNLWKEEMECLDWLDTKTQNSVIYINFGSITVLSVKQLVEFAWGLAGSGKEFLWVIRPDLVAGEEAMVPPDFLMETKDRSMLASWCPQEKVLSHPAIGGFLTHCGWNSILESLSCGVPMVCWPFFADQQMNCKFCCDEWDVGIEIGGDVKREEVEAVVRELMDGEKGKKMREKAVEWQRLAEKATEHKLGSSVMNFETVVSKFLLGQKSQD
With B1 the “Area-under-curve of the peak of glycosylated nootkatol (nootkatol+1 glucose) produced in vitro” value [3] was 1632282.
